Test results reported in patent US20070292385A1, “Phospholipase Inhibitors Localized in the Gastrointestinal Lumen” (priority 2004, published 2007).
Like-named read-outs stand apart in the source and are kept apart here.

Columns and labels:
PL A2 = settings: cited from earlier work
Caco-2 monolayers [1] = assay: Caco-2 permeability study; settings: apical to basolateral
[2] = pharmokinetic study, IV and oral; assay type: in vivo, mice; settings: for AUC(0-inf) / Cmax / Tmax / half-life: mouse, plasma; for half-life: read-out: t½ (converted)
Description: This example characterized ILY-4001 [2-(3-(2-amino-2-oxoacetyl)-1-(biphenyl-2-ylmethyl)-2-methyl-1H-indol-4-yloxy)acetic acid], alternatively referred to herein as methyl indoxam, with respect to activity, as determined by IC50 assay (Example 1B-1), with respect to cell absorbtion, as determined by in-vitro Caco-2 assay (Example 1B-2) and with respect to bioavailability, as determined using in-vivo mice studies (Example 1B-3).
Bioavailability was calculated as a ratio of AUC-oral/AUC-intravenous (IV). To determine this ratio, a first set of subject animals were given a measured intravenous (IV) dose of ILY-4001, followed by a determination of ILY-4001 levels in the blood at various time points after administration (e.g., 5 minutes through 24 hours). Another second set of animals was similarly dosed using oral administration, with blood levels of ILY-4001 determined at various time points after administration (e.g., 30 minutes through 24 hours). The level of ILY-4001 in systemic circulation were determined by generally accepted methods (for example as described in Evans, G., A Handbook of Bioanalysis and Drug Metabolism. Boca Raton, CRC Press (2004)). Specifically, […]/mass spectrometry/mass spectrometry (LC/MS/MS) analytical methods were used to quantitate plasma concentrations of ILY-4001 after oral and intravenous administration. Pharmacokinetic parameters that were measured include Cmax, AUC, tmax, t1/2, and F (bioavailability).
In this procedure, ILY-4001 was dosed at 3 mg/kg IV and 30 mg/kg oral. […] This indicated about a 72% level of non-absorption of ILY-4001 from the GI tract into systemic circulation.

Porcine PLA2 IB = biological target: T1, Porcine PLA2 IB (Sus scrofa, UniProt P00592); assay: continuous fluorimetric assay for PLA2 activity (PPyrPG vesicles); assay type: biochemical; settings: 37° C.
T1 construct: purchased
Text: A continuous fluorimetric assay for PLA2 activity described in the literature was used to determine IC (Leslie, C C and Gelb, M H (2004) Methods in Molecular Biology “Assaying phospholipase A2 activity”, 284: 229-242, Singer, A G, et al. (2002) Journal of Biological Chemistry “Interfacial kinetic and binding properties of the complete set of human and mouse groups I, II, V, X, and XII secreted phospholipases A2”, 277: 48535-48549, Bezzine, S, et al. (2000) Journal of Biological Chemistry “Exogenously added human group X secreted phospholipase A(2) but not the group IB, IIA, and V enzymes efficiently release arachidonic acid from adherent mammalian cells”, 275: 3179-3191) and references therein.
Generally, this assay used a phosphatidylglycerol (or phosphatidylmethanol) substrate with a pyrene fluorophore on the terminal end of the sn-2 fatty acyl chain. […] The effect of a given inhibitor and inhibitor concentration on any given phospholipase can be determined. […]
In this example, the procedure was performed as follows: • 1. […] The fluorescence was read using an excitation of 342 nm and an emission of 395 nm.
In this example, the IC50 was calculated using the BioDataFit 1.02 (Four Parameter Model) software package. […]

[3] = in-vivo study on high fat/high sucrose diabetogenic diet (Example 10); design: species or system C57BL/6 mice; settings: for fasting glucose levels: low dose 25 mg/kg/day
Description: ILY-4001 (FIG. 5) was evaluated as a PLA2 IB inhibitor in a set of experiments using wild-type mice and genetically deficient PLA2 (−/−) mice (also referred to herein as PLA2 knock-out (KO) mice). In these experiments, wild-type and PLA2 (−/−) mice were maintained on a high fat/high sucrose diet, details of which are described below.
Briefly, four groups were set up, each having six mice. Three of the groups included six wild-type PLA2 (+/+) mice in each group (eighteen mice total), and one of the groups included six genetically deficient PLA2 (−/−) mice. One of the wild-type groups was used as a wild-type control group, and was not treated with ILY-4001. The other two wild-type groups were treated with ILY-4001—one group at a lower dose (indicated as “L” in Table 1) of 25 mg/kg/day, and the other at a higher dose (indicated as “H” in Table 1) of 90 mg/kg/day. The group comprising the PLA2 (−/−) mice was used as a positive control group.
The experimental protocol used in this study was as follows. The four groups of mice, including wild type and isogenic PLA2 (−/−) C57BL/J mice were acclimated for three days on a low fat/low carbohydrate diet. After the three day acclimation phase, the animals were fasted overnight and serum samples taken to establish baseline plasma cholesterol, triglyceride, and glucose levels, along with baseline body weight. The mice in each of the treatment groups were then fed a high fat/high sucrose diabetogenic diet (Research Diets D12331). 1000 g of the high fat/high sucrose D12331 diet was composed of casein (228 g), DL-methionine (2 g), maltodextrin 10 (170 g), sucrose (175 g), soybean oil (25 g), hydrogenated coconut oil (333.5 g), mineral mix S10001 (40 g), sodium bicarbonate (10.5 g), potassium citrate (4 g), vitamin mix V10001 (10 g), and choline bitartrate (2 g). This diet was supplemented with ILY-4001 treatments such that the average daily dose of the compound ingested by a 25 g mouse was: 0 mg/kg/day (wild-type control group and PLA2 (−/−) control group); 25 mg/kg/day (low-dose wild-type treatment group), or 90 mg/kg/day (high-dose wild-type treatment group). The animals were maintained on the high fat/high sucrose diet, with the designated ILY-4001 supplementation, for a period of ten weeks.
Body weight measurements were taken for all animals in all treatment and control groups at the beginning of the treatment period and at 4 weeks and 10 weeks after initiation of the study. (See Example 10A). Blood draws were also taken at the beginning of the treatment period (baseline) and at 4 weeks and 10 weeks after initiation of the study, in order to determine fasting glucose (See Example 10B). Cholesterol and triglyceride levels were determined from blood draws taken at the beginning of the treatment (baseline) and at ten weeks. (See Example 10C).

Caco-2 monolayers [4] = tested on: Caco-2 monolayers
[5] = low and high doses (25 and 90 mg/kg/day), 10 weeks

T1 sequence (P00592 23-146): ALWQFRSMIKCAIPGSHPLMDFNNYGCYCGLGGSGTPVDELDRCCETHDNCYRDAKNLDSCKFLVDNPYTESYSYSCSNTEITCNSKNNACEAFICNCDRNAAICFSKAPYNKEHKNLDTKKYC

Question: Which IC50 (PL A2) does the source give for `CCC1=C(CC(N)=O)c2cc(OCCCP(=O)(O)O)ccc2C1Nc1ccccc1` (stereo not shown) here?
Answer: sub μM range

Question: With `Cc1c(C(=O)C(N)=O)c2c(OCC(=O)O)cccc2n1Cc1ccccc1-c1ccccc1` [ILY-4001, 2-(3-(2-amino-2-oxoacetyl)-1-(biphenyl-2-ylmethyl)-2-methyl-1H-indol-4-yloxy)acetic acid] as the molecule, how does the apparent permeability (Caco-2 monolayers [1]) read?
Answer: around 1.66×10^−7 cm/s

Question: What about the AUC(0-inf) ([2]; iv, 3 mg/kg) of the same molecule?
Answer: 2760 ng·h/mL

Question: And the Cmax ([2]; iv, 3 mg/kg)?
Answer: 3170 ng/mL

Question: What about the Tmax ([2]; iv, 3 mg/kg) of the same molecule?
Answer: 0.083 h

Question: And the AUC(0-t) ([2]; mouse, plasma, iv, 3 mg/kg; read-out: AUC 0-24))?
Answer: 2790 ng·h/mL

Question: And the half-life ([2]; iv, 3 mg/kg)?
Answer: 1.03 h

Question: What about the AUC(0-inf) ([2]; oral, 30 mg/kg) of the same molecule?
Answer: 5730 ng·h/mL

Question: What about the Cmax ([2]; oral, 30 mg/kg) of the same molecule?
Answer: 2290 ng/mL

Question: And the Tmax ([2]; oral, 30 mg/kg)?
Answer: 1 h

Question: What about the AUC(0-t) ([2]; mouse, plasma; oral, 30 mg/kg; read-out: AUC 0-24)) of the same molecule?
Answer: 5950 ng·h/mL

Question: What about the half-life ([2]; oral, 30 mg/kg) of the same molecule?
Answer: 1.25 h

Question: What about the IC50 (Porcine PLA2 IB) of the same molecule?
Answer: 62 nM

Question: And the “body weight gain compared to wild-type control group” value ([3]; 25 mg/kg/d and 90 mg/kg/d in diet, week 4 and week 10)?
Answer: significantly reduced

Question: And the “plasma levels of cholesterol” value [3, 5]?
Answer: substantially reduced

Question: And the “plasma levels of triglycerides” value [3, 5]?
Answer: substantially reduced

Question: And the fasting glucose levels ([3]; week four)?
Answer: moderately beneficial effect

Question: What about the fasting glucose levels ([3]; week ten) of the same molecule?
Answer: beneficial effect was not observed

Question: With Lucifer Yellow as the molecule, how does the apparent permeability (Caco-2 monolayers [4]) read?
Answer: around 2.82×10^−7+/−0.37×10^−7 cm/s
